Source: publication PMC1616953 (Nucleic Acids Research, 2006)

System: Ssα-fuc
Assay: enzyme kinetics, 4-nitrophenyl substrate hydrolysis
Format: biochemical, Saccharolobus solfataricus
Settings: 65°C; KM printed as identical within error for Ssα-fuc and Ssα-fuc^B

SMILES: C[C@@H]1O[C@@H](Oc2ccc([N+](=O)[O-])cc2)[C@@H](O)[C@H](O)[C@@H]1O [4NP-Fuc, 4-nitrophenyl-α-L-fucoside]
- Km: 28.7 ± 5 µM
